According to patent US9604923B2 (H. LEE MOFFITT CANCER CENTER AND RESEARCH INSTITUTE, INC., priority 2006, dated 2017):

Tests used:
MDA-MB-453 [1] = test: Apoptosis by Annexin V binding and Flow Cytometry; assay type: cell-based, human; conditions: 100 μM or less, 48 hours
Protocol: (§1) In some cases, cells were first transfected with Stat3C, ST3-NT, or ST3-SH2 domain or mock-transfected for 24 hours prior to treatment with compound for an additional 24-48 hours. Cells were then detached and analyzed by Annexin V binding (BD Biosciences, San Diego) according to the manufacturer's protocol and Flow Cytometry to quantify the percent apoptosis.

MDA-MB-435 = test: Apoptosis by Annexin V binding and Flow Cytometry; assay type: cell-based, human
Protocol: as §1

[2] = system: β-Casein promoter-driven Luc; test: Luciferase reporter assay, v-Src co-transfected NIH3T3; assay type: cell-based, mouse; conditions: 100 μM, 24 hours
Text: (§2) […]; Turkson, J. et al. Mol. Cell.
[…]. […] […].

NIH3T3 [3] = test: Viable cell number by trypan blue exclusion; assay type: cell-based, mouse; conditions: 100 μM, four days
Text: (§3) […]. Values are the mean and S.D. of 3-4 independent determinations.
(§4) . The present inventors next determined whether this Stat3 activity inhibitor is able to inhibit the anchorage-dependent and -independent (transformation) growth of human and mouse cancer cell lines and whether this inhibition is dependent on the presence of persistently-active Stat3. […]. […]

NIH3T3/v-Src [4] = test: Viable cell number by trypan blue exclusion; assay type: cell-based, mouse; conditions: 100 μM, four days
Text: as §3, §4

[5] = system: constitutively-active Stat3 in NIH3T3/v-Src fibroblasts; conditions: 100 μM, by 24 hours
[6] = biological target: FLAG-ST3:Stat3-YFP complex (Homo sapiens, UniProt P40763); conditions: NIH3T3/v-Src, 24 hours
Sequence of FLAG-ST3:Stat3-YFP complex (P40763 whole entry, one chain of several): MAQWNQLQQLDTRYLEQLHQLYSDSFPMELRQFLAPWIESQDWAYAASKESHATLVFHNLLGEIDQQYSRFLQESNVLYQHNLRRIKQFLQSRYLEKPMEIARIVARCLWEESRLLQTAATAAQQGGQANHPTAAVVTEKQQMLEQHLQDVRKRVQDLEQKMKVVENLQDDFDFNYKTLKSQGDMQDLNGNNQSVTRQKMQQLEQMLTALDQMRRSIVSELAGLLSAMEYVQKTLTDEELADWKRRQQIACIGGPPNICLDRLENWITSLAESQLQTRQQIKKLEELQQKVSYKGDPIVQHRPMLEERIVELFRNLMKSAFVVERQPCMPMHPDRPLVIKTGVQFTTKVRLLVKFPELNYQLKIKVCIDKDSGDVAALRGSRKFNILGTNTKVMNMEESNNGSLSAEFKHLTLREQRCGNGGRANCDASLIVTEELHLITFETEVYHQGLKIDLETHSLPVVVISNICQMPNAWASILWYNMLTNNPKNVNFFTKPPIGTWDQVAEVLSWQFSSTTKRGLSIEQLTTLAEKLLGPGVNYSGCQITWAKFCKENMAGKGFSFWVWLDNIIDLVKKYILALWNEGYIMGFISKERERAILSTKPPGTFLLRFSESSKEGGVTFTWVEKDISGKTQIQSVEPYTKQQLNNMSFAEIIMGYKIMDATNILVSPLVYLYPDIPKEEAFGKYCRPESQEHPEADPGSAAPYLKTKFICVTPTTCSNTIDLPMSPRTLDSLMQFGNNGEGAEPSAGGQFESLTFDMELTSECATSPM

[7] = system: Cyclin D1, Bcl-xL and Survivin in MDA-MB-231; test: Immunoblot of Stat3-regulated gene products; assay type: cell-based, human; conditions: 100, 48 hours
[8] = system: pShc, pErk1/2, pSrc, pTyr profile in NIH3T3/v-Src or EGF-stimulated NIH3T3/hEGFR; test: Western blot for other signaling proteins; assay type: cell-based, mouse
MDA-MB-231 = test: Apoptosis by Annexin V binding and Flow Cytometry; assay type: cell-based, human; conditions: untransfected or mock-transfected cells; 100 μM
Protocol: as §2, §1
[…]. To this end, the breast carcinoma MDA-MB-231 cells that harbor activated Stat3 were transiently transfected with Stat3C and evaluated for apoptosis. […] […]. There is increased in the background level of cell death, which could be due to the effects of transfection. […].

[9] = system: pTyr705 Stat3 in NIH3T3/v-Src fibroblasts; conditions: 100 μM, 24-hour treatment
NIH3T3/v-Ras = test: Soft-agar colony formation assay; assay type: cell-based, mouse; conditions: 100 μM every 3 days
Protocol: (§5) Briefly, each well contained 1.5 ml of 1% agarose in Dulbeco's modified Eagle's medium as the bottom layer and 1.5 ml of 0.5% agarose in Dulbeco's modified Eagle's medium containing 4000 or 6000 NIH3T3/v-Src or NIH3T3/v-Ras fibroblasts, respectively, as the top layer. […]. Colonies were quantified by staining with 20 μl of 1 mg/ml iodonitrotetrazolium violet, incubating at 37° C. overnight, and counting the next day.

NIH3T3/v-Src [10] = test: Soft-agar colony formation assay; assay type: cell-based, mouse; conditions: 100 μM every 3 days
Protocol: as §5

Stat3 = Stat3 (Homo sapiens, UniProt P40763); conditions: 10, 30, and 100 μM pre-incubation
Sequence of Stat3 (P40763 2-770 limits assumed): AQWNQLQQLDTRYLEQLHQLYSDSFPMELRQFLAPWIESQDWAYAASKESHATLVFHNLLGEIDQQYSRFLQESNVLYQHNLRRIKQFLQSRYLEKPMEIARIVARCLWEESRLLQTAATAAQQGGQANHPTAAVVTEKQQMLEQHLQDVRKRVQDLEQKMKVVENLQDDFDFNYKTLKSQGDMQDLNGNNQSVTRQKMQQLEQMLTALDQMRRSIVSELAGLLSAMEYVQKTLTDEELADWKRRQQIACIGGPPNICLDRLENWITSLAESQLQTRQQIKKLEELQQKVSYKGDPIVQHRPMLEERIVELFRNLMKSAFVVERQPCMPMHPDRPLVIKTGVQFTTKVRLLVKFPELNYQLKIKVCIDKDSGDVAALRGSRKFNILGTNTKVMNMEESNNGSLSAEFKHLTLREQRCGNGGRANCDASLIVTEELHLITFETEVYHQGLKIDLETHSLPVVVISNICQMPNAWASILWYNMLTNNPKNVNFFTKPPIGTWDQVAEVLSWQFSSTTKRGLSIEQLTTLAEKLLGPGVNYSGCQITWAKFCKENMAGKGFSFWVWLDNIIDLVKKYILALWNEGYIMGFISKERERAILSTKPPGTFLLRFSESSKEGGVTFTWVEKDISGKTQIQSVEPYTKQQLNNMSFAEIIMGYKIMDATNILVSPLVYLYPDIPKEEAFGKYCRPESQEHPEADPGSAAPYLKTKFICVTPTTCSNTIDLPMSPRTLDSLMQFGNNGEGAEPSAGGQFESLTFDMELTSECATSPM

NIH3T3 [11] = test: Apoptosis by Annexin V binding and Flow Cytometry; assay type: cell-based, mouse
Protocol: as §1

[12] = system: Cyclin D1, Bcl-xL and Survivin in NIH3T3/v-Src; test: Immunoblot of Stat3-regulated gene products; assay type: cell-based, mouse; conditions: 100, 48 hours
NIH3T3/v-Src [13] = test: Apoptosis by Annexin V binding and Flow Cytometry; assay type: cell-based, mouse
Protocol: . In FIG. 4B, human breast carcinoma MDA-MB-231 cells were transfected with pcDNA3 (mock), Stat3C or untransfected (Non), or the v-Src transformed mouse fibroblasts (NIH3T3/v-Src) were transfected with pcDNA3 (mock), N-terminus of Stat3 (ST3-NT) or the Stat3 SH2 domain (ST3-SH2) for […]. […]. Values are the mean and S.D. of six independent determinations. Western blot data are representative of 3 independent analyses.
as §1

Stat5:5 = test: STATs DNA-binding activity in vitro, EMSA with MGFe probe; set-up: species or system mouse
[14] = system: constitutively-active Stat3 in MDA-MB-231, MDA-MB-435 and MDA-MB-468 cells; conditions: 100 μM; by 24 hours in text, 48 hours in FIG. 2E legend
[15] = system: Stat3-dependent luciferase reporter pLucTKS3; conditions: dose-dependent manner
[16] = system: Stat3-independent luciferase reporter pLucSRE; conditions: 100 μM, 24 hours
[17] = system: human breast (MDA-MB-231) tumor; test: Human breast tumor xenografts in athymic nude mice; assay type: in vivo, mouse
[18] = system: MDA-MB-231, MDA-MB-435 and MDA-MB-468; test: Viable cell number by trypan blue exclusion; assay type: cell-based, human; conditions: 100 μM, four days
Text: as §3, §4

MDA-MB-453 [19] = test: Viable cell number by trypan blue exclusion; assay type: cell-based, human; conditions: 100 μM, four days
Text: as §3, §4

- v-Src-mediated induction of β-Casein promoter Luc [2]: not affected
- FLAG-ST3 protein in the Stat3-YFP immunoprecipitates [6]: no detectable level
- Stat3-YFP in the FLAG-ST3 immunoprecipitates [6]: significantly reduced
- Stat3 activity in control tumor tissue lysates (Stat3): dose-dependent abrogation
- preference for Stat3 over Stat5 (less potency for Stat5) (Stat5:5; DNA-binding activity): 2 fold
- IC50 (Stat5:5; Table 4, listed as 74859, read-out: IC50 values for the inhibition of STATs DNA-binding activity in vitro, Stat5:5): 166 µM
- v-Src-mediated pLucTKS3 induction [15]: significantly inhibited
- v-Src-mediated induction of pLucSRE [16]: not affected
Structure (SMILES): Cc1ccc(S(=O)(=O)OCC(=O)Nc2ccc(C(=O)O)c(O)c2)cc1 [Compound S3I-201, 2-Hydroxy-4-(2-(tosyloxy)acetamido)benzoic acid]
- sensitivity to apoptosis induction (MDA-MB-453 [1]): less sensitive
- sensitivity to apoptosis induction (MDA-MB-435; 30 μM): more sensitive
- apoptosis (MDA-MB-435; 30-100, 48 hours): significant apoptosis
- growth and viability (NIH3T3 [3]): not significantly altered
- viable cell numbers and growth (NIH3T3/v-Src [4]): significantly reduced viable cell numbers and inhibited growth
- constitutive Stat3 activation [5]: significantly inhibited
- expression of the Cyclin D1, Bcl-xL and Survivin proteins [7]: significant reduction in expression
- phosphorylation of Shc (pShc), Erk1/2 (pErk1/2), or Src (pSrc) ([8]; 100 μM, 24 hours): no significant effect
- total Erk1/2 protein levels ([8]; 24 hours): unchanged
- pTyr profile, anti-pTyr antibody 4G10 clone ([8]; NIH3T3/v-Src, 24-hour treatment): no significant changes
- apoptosis (MDA-MB-231): 50-80%
- pTyr705 Stat3 levels [9]: significantly diminished
- total Stat3 protein level [9]: remained unchanged
- soft-agar growth (NIH3T3/v-Ras): unaffected
- growth in soft-agar suspension (NIH3T3/v-Src [10]): significantly inhibited
- sensitivity to apoptosis induction (NIH3T3 [11]; 100 μM or less, 48 hours): less sensitive
- cytotoxicity (NIH3T3 [11]; 300 μM or higher, independent of Stat3 activation status): general, non-specific cytotoxicity
- expression of the Cyclin D1, Bcl-xL and Survivin proteins [12]: significant reduction in expression
- apoptosis (NIH3T3/v-Src [13]; 30-100, 48 hours): significant apoptosis
- apoptosis (NIH3T3/v-Src [13]; cells overexpressing the ST3-NT region): strong induction of apoptosis
- apoptosis (NIH3T3/v-Src [13]; mock-transfected cells): strongly induced
- apoptosis (NIH3T3/v-Src [13]; overexpression of the Stat3-SH2 domain): diminished the apoptotic effects
- constitutive Stat3 activation [14]: significantly inhibited
- tumor growth compared to control (vehicle-treated) tumors ([17]; 5 mg/kg i.v. every 2 or every 3 days for two weeks): strong growth inhibition
- tumor growth upon termination of treatment ([17]; data not shown): no resumption of tumor growth
- total Stat3 protein in residual tumor tissue ([17]; treated mice T1 and T2): remained unchanged
- pTyr Stat3 (pYStat3) in residual tumor tissue ([17]; treated mice T1 and T2 compared to control): minimal to no detection
- Stat3 DNA binding activity in residual tumor tissue (EMSA) ([17]; treated mice T1 and T2 compared to control tumor): strong inhibition
- viable cell numbers and growth [18]: significantly reduced viable cell numbers and inhibited growth
- growth and viability (MDA-MB-453 [19]): not significantly altered
